Measurements: ChEMBL document CHEMBL1136484, “3D-QSAR studies on natural acetylcholinesterase inhibitors of Sarcococca saligna by comparative molecular field analysis (CoMFA)” (Bioorg Med Chem Lett, 2003)

Target: Acetylcholinesterase (Homo sapiens, UniProt P22303)
Experiment: Compound was tested for the in silico inhibition of acetylcholinesterase

Acetylcholinesterase, sequence (P22303 whole entry): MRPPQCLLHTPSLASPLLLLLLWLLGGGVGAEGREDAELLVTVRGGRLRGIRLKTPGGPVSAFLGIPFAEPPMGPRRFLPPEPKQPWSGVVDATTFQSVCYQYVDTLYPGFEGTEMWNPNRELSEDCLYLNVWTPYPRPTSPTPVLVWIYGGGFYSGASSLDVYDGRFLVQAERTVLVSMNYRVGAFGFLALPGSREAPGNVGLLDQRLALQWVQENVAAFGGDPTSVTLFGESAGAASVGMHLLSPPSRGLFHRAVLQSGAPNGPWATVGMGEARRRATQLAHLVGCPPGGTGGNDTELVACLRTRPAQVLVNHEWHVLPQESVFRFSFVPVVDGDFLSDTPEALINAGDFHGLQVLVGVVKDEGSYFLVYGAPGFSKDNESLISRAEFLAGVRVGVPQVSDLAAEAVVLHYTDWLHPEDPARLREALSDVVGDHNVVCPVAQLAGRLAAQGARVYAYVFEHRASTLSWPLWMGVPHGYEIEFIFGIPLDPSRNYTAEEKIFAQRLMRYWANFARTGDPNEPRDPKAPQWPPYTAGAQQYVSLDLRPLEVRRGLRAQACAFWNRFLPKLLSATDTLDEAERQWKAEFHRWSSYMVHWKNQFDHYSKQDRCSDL

Compound | IC50 [µM]
CC(=O)N(C)[C@@H](C)[C@H]1CC[C@H]2[C@@H]3CC[C@H]4C[C@@H](N(C)C)CC[C@]4(C)[C@H]3CC[C@]12C | 50.1
C/C=C(\C)C(=O)NC1=CC[C@@]2(C)[C@@H](CC[C@H]3C4CC[C@H]([C@H](C)N(C)C)[C@@]4(C)CC[C@@H]32)C1=O (stereo not given in full) | 13.8
C/C=C(\C)C(=O)N[C@@H]1C=C2CC[C@H]3C4=CC[C@H]([C@H](C)N(C)C)[C@@]4(C)CC[C@@H]3[C@@]2(C)CC1 | 7.76
C[C@H](NC=O)[C@H]1CC[C@H]2[C@@H]3CC[C@H]4C[C@@H](N(C)C)CC[C@]4(C)[C@H]3CC[C@]12C | 6.46
CN[C@@H](C)C1=CC[C@H]2[C@@H]3CC=C4C[C@@H](OC)CC[C@]4(C)[C@H]3CC[C@]12C | 83.2
CO[C@@H]1CC2=CC[C@@H]3[C@H](CC[C@]4(C)C([C@H](C)N(C)C)=CC[C@@H]34)[C@@]2(C)C[C@@H]1O | 251
CC(=O)N(C)[C@@H](C)[C@H]1CC[C@H]2[C@@H]3CC=C4C[C@@H](N(C)C)CC[C@]4(C)[C@H]3CC[C@]12C | 20
C/C=C(\C)C(=O)N[C@H]1CC[C@@]2(C)C(=CC[C@H]3C4=CC[C@H]([C@H](C)N(C)C)[C@@]4(C)CC[C@@H]32)C1=O | 5.75
CN[C@H]1CC[C@@]2(C)[C@@H](CC[C@@H]3[C@@H]2CC[C@]2(C)C([C@H](C)N(C)C)=CC[C@@H]32)C1 | 20.4
C/C=C(\C)C(=O)N[C@@H]1C=C2CC[C@H]3[C@@H]4CC[C@H]([C@H](C)N(C)C)[C@@]4(C)CC[C@@H]3[C@@]2(C)C[C@@H]1O | 15.8
CC(=O)O[C@@H]1C2CC[C@H]3C4CC=C([C@H](C)N(C)C)[C@@]4(C)CC[C@@H]3[C@@]2(C)CC[C@@H]1NC(=O)C=C(C)C (stereo not given in full) | 5.25
CN[C@H]1CC[C@@]2(C)C(CC[C@H]3[C@@H]4CC[C@H]([C@H](C)N(C)C)[C@@]4(C)CC[C@@H]32)C1 (stereo not given in full) | 6.17
CO[C@H]1CC[C@@]2(C)C(=CC[C@@H]3[C@@H]2CC[C@]2(C)C([C@H](C)N(C)C=O)=CC[C@@H]32)C1 | 49
C/C=C(\C)C(=O)N[C@H]1CC[C@@]2(C)C(=CC[C@H]3[C@@H]4CC[C@H]([C@H](C)N(C)C)[C@@]4(C)CC[C@@H]32)[C@H]1O | 30.2
C[C@@H]([C@H]1CC[C@H]2[C@@H]3CC[C@H]4C(=O)C(NC(=O)c5ccccc5)=CC[C@]4(C)[C@H]3CC[C@]12C)N(C)C | 5.25
C/C=C(\C)C(=O)N[C@@H]1[C@H](O)C2CC[C@H]3C4=CC[C@H]([C@H](C)N(C)C)[C@@]4(C)CC[C@@H]3[C@@]2(C)C[C@@H]1O (stereo not given in full) | 33.1
C/C=C(\C)C(=O)N[C@H]1C(OC(C)=O)C[C@@]2(C)C(CC[C@H]3C4CC=C([C@H](C)N(C)C)[C@@]4(C)CC[C@@H]32)[C@H]1OC(C)=O (stereo not given in full) | 50.1
CO[C@H]1CC[C@@]2(C)C(=CC[C@H]3[C@@H]4CC[C@H]([C@H](C)N(C)C)[C@@]4(C)CC[C@@H]32)C1 | 42.7
C/C=C(\C)C(=O)N[C@@H]1[C@H](OC(C)=O)[C@@H]2CC[C@H]3C4=CC[C@H]([C@H](C)N(C)C)[C@@]4(C)CC[C@@H]3[C@@]2(C)C[C@@H]1O | 61.7
C[C@@H]([C@H]1CC[C@H]2[C@@H]3CC[C@H]4C[C@@H](NC(=O)c5ccccc5)[C@@H](O)C[C@]4(C)[C@H]3CC[C@]12C)N(C)C | 77.6
C/C=C(\C)C(=O)N[C@H]1CC[C@@]2(C)C(=CC[C@H]3[C@@H]4CC[C@H]([C@H](C)N(C)C)[C@@]4(C)CC[C@@H]32)C1=O | 7.08
C[C@@H]([C@H]1CC[C@H]2[C@@H]3CC=C4C[C@@H](N(C)C)CC[C@]4(C)[C@H]3CC[C@]12C)N(C)C | 39.8
C/C(=C\C(=O)N(C)[C@H]1CC[C@@]2(C)[C@@H](CC[C@@H]3[C@@H]2CC[C@]2(C)[C@@H]([C@H](C)N(C)C)CC[C@@H]32)C1)C(C)C | 6.46
CC(=O)O[C@H]1[C@@H](NC(=O)c2ccccc2)[C@@H](O)C[C@]2(C)[C@H]3CC[C@]4(C)[C@@H]([C@H](C)N(C)C)CC[C@H]4[C@@H]3CC[C@@H]12 | 229
C/C=C(\C)C(=O)N[C@@H]1[C@H](OC(C)=O)[C@@H]2CC[C@@H]3[C@H](CC[C@]4(C)[C@@H]([C@H](C)N(C)C)CC[C@@H]34)[C@@]2(C)C[C@@H]1O | 182
CC(=O)N[C@H]1CC[C@@]2(C)[C@@H](CC[C@@H]3[C@@H]2CC[C@]2(C)[C@@H]([C@H](C)N(C)C)CC[C@@H]32)C1 | 69.2
C/C(=C\C(=O)N(C)[C@H]1CC[C@@]2(C)[C@@H](CC[C@@H]3[C@@H]2CC[C@]2(C)C([C@H](C)N(C)C)=CC[C@@H]32)C1)C(C)C | 6.17
CC(=O)N(C)[C@H]1CC[C@@]2(C)[C@@H](CC[C@@H]3[C@@H]2CC[C@]2(C)[C@@H]([C@H](C)N(C)C)CC[C@@H]32)C1 | 70.8
C[C@@H]([C@H]1CC[C@H]2[C@@H]3CC[C@H]4C[C@@H](NC(=O)c5ccccc5)CC[C@]4(C)[C@H]3CC[C@]12C)N(C)C [EPIPACHYSAMINE D] | 28.8
C[C@@H]([C@H]1CC[C@H]2[C@@H]3CC[C@H]4C[C@@H](N(C)C(=O)/C=C/c5ccccc5)CC[C@]4(C)[C@H]3CC[C@]12C)N(C)C [SALIGCINNAMIDE] | 19.5
